The record followed here is patent US20260265190A1, “AROMATIC COMPOUNDS FOR USE AS PROTEIN PHOSPHATASE 2A (PP2A) MODULATORS” (RAPPTA THERAPEUTICS OY, priority 2022, published 2026).

By GI50 is commonly meant the concentration giving 50% growth inhibition.

Structures are written as SMILES.

The first assay concerns LNCaP cells. In words: Cell viability assay (MTS), LNCaP cell line. It is filed as cell-based. The conditions noted are these: Homo sapiens, 48 hours. Here is the method:
LNCaP cell line was used for the cell viability assay. LNCaP cells were plated in 96-well plates at a density of 5000 cells per well. After 24 hours of plating, the cells were treated with increasing doses of compound (e.g., compounds 1-38) ranging from 1 μM to 80 μM. Relative cell numbers were analyzed after 48 hours using 3-(4,5-dimethylthiazol-2-yl)-5-(3-carboxymethoxyphenyl)-2-(4-sulfophenyl)-2H-tetrazolium (MTS) assay (Promega) according to the manufacturer's instructions.
(§1) The cell viability data was analyzed with GraphPad Prism software. The values were log transformed and analyzed with non-linear regression (curve-fit) using log (inhibitor) vs. response—variable slope (four parameters) and constraining the bottom to equal zero. Unless otherwise indicated, the GI50 values provided in Table 1 correspond to the LNCaP cell viability assays.
In turn, `O=S(=O)(NC1(c2ccc(F)c(F)c2)CCNC1)c1ccc(OC(F)(F)F)cc1` (centres unmarked) [Example 1, N-(3-(3,4-difluorophenyl)pyrrolidin-3-yl)-4-(trifluoromethoxy)benzenesulfonamide] registered a GI50 of 25.7 µM.

Molecule `O=S(=O)(NC1(c2cc(F)cc(F)c2)CCNCC1)c1ccc(OC(F)(F)F)cc1` [Example 2, N-(4-(3,5-difluorophenyl)piperidin-4-yl)-4-(trifluoromethoxy)benzenesulfonamide] had a GI50 of 15.5 µM.

For the molecule `O=S(=O)(NC1(c2ccc(Cl)nc2)CCNCC1)c1ccc(OC(F)(F)F)cc1` [Example 3, N-(4-(6-chloropyridin-3-yl)piperidin-4-yl)-4-(trifluoromethoxy)benzenesulfonamide], halving of growth (GI50) required 69.9 µM.

`Cc1cc(C2(NS(=O)(=O)c3ccc(OC(F)(F)F)cc3)CCNCC2)ccc1Cl` [Example 4, N-(4-(4-chloro-3-methylphenyl)piperidin-4-yl)-4-(trifluoromethoxy)benzenesulfonamide] had a GI50 of 6.76 µM.

`O=S(=O)(NC1(c2ccccc2)CCC2(CC2)NC1)c1ccc(OC(F)(F)F)cc1` (centres unmarked) [Example 6, N-(6-phenyl-4-azaspiro[2.5]octan-6-yl)-4-(trifluoromethoxy)benzenesulfonamide]: the GI50 was 57.5 µM.

For `CC(C)Oc1ccc(S(=O)(=O)NC2(c3ccc(F)c(F)c3)CCNCC2)cn1` [Example 7, N-(4-(3,4-difluorophenyl)piperidin-4-yl)-6-isopropoxypyridine-3-sulfonamide], it took 36.8 µM to inhibit growth by half (GI50).

`CNc1cc(S(=O)(=O)NC2(c3ccc(Cl)cc3)CCNCC2)ccc1OC(F)(F)F` [Example 8, N-(4-(4-chlorophenyl)piperidin-4-yl)-3-(methylamino)-4-(trifluoromethoxy)benzenesulfonamide] had a 50% growth inhibitory concentration (GI50) of 25.2 µM.

Consider `O=S(=O)(NC1(c2cc(Cl)ncc2Cl)CCNCC1)c1ccc(OC(F)(F)F)cc1` [Example 9, N-(4-(2,5-dichloropyridin-4-yl)piperidin-4-yl)-4-(trifluoromethoxy)benzenesulfonamide], for which growth was halved (GI50) at 28.8 µM.

The molecule `O=S(=O)(NC(c1ccccc1)C1CCNCC1)c1ccc(OC(F)(F)F)cc1` (centres unmarked) [Example 10, N-(phenyl(piperidin-4-yl)methyl)-4-(trifluoromethoxy)benzenesulfonamide] gave a GI50 of 20.5 µM.

Take `O=S(=O)(N[C@@H](c1ccccc1)C1CCNCC1)c1ccc(OC(F)(F)F)cc1` [Example 11, (R)-N-(phenyl(piperidin-4-yl)methyl)-4-(trifluoromethoxy)benzenesulfonamide]: the GI50 amounted to 24.7 µM.

Molecule `O=S(=O)(N[C@H](c1ccccc1)C1CCNCC1)c1ccc(OC(F)(F)F)cc1` [Example 12, (S)-N-(phenyl(piperidin-4-yl)methyl)-4-(trifluoromethoxy)benzenesulfonamide] displayed a GI50 of 27.1 µM.

As to `O=S(=O)(N[C@@H](c1ccc(Cl)cc1)C1CCNCC1)c1ccc(OC(F)(F)F)cc1` [Example 13, (R)-N-((4-chlorophenyl)(piperidin-4-yl)methyl)-4-(trifluoromethoxy)benzenesulfonamide], the GI50 is 10 µM.

`O=S(=O)(N[C@H](c1ccc(Cl)cc1)C1CCNCC1)c1ccc(OC(F)(F)F)cc1` [Example 14, (S)-N-((4-chlorophenyl)(piperidin-4-yl)methyl)-4-(trifluoromethoxy)benzenesulfonamide] displayed a GI50 of 11.3 µM.

The molecule `CC(C)Oc1ccc(S(=O)(=O)N[C@@H](c2ccc(Cl)cc2)C2CCNCC2)cn1` [Example 16, (R)-N-((4-chlorophenyl)(piperidin-4-yl)methyl)-6-isopropoxypyridine-3-sulfonamide] came in with a GI50 of 23.4 µM.

`CC(C)Oc1ccc(S(=O)(=O)N[C@H](c2ccc(Cl)cc2)C2CCNCC2)cn1` [Example 17, (S)-N-((4-chlorophenyl)(piperidin-4-yl)methyl)-6-isopropoxypyridine-3-sulfonamide] gave a concentration for 50% growth inhibition (GI50) of 26.4 µM.

Molecule `O=S(=O)(NC(CN1CCNCC1)c1ccc(F)cc1F)c1ccc(OC(F)(F)F)cc1` (centres unmarked) [Example 20, N-(1-(2,4-difluorophenyl)-2-(piperazin-1-yl)ethyl)-4-(trifluoromethoxy)benzenesulfonamide] had a GI50 of 27.1 µM.

Regarding `O=S(=O)(NC(CN1CCNCC1)c1ccc(F)c(F)c1)c1ccc(OC(F)(F)F)cc1` (centres unmarked) [Example 21, N-(1-(3,4-difluorophenyl)-2-(piperazin-1-yl)ethyl)-4-(trifluoromethoxy)benzenesulfonamide], it took 33.8 µM to inhibit growth by half (GI50).

Turning to `CC(C)Oc1ccc(S(=O)(=O)NC(CN2CCNCC2)c2ccc(Cl)cc2)cn1` (centres unmarked) [Example 22, N-(1-(4-chlorophenyl)-2-(piperazin-1-yl)ethyl)-6-isopropoxypyridine-3-sulfonamide], halving of growth (GI50) required 51.1 µM.

On to `Nc1cc(S(=O)(=O)NC(CN2CCNCC2)c2ccc(Cl)cc2)ccc1OC(F)(F)F` (centres unmarked) [Example 23, 3-amino-N-(1-(4-chlorophenyl)-2-(piperazin-1-yl)ethyl)-4-(trifluoromethoxy)benzenesulfonamide], for which the concentration for 50% growth inhibition (GI50) was 30.8 µM.

Turning to `O=S(=O)(N[C@H](CN1CCC[C@H](F)C1)c1ccc(F)cc1)c1ccc(OC(F)(F)F)cc1` [Example 26, N-((S)-1-(4-fluorophenyl)-2-((S)-3-fluoropiperidin-1-yl)ethyl)-4-(trifluoromethoxy)benzenesulfonamide], the GI50 amounted to 47.5 µM.

Consider `O=S(=O)(N[C@H](CN1CC(N2CCC2)C1)c1ccc(F)cc1)c1ccc(OC(F)(F)F)cc1` [Example 27, (S)-N-(2-([1,3′-biazetidin]-1′-yl)-1-(4-fluorophenyl)ethyl)-4-(trifluoromethoxy)benzenesulfonamide], for which the GI50 is 24.4 µM.

Take `CN(C)CC(NS(=O)(=O)c1ccc(Oc2cccc(C(F)(F)F)c2)cc1)c1ccc(Cl)c(Cl)c1` (centres unmarked) [Example 28, N-(1-(3,4-dichlorophenyl)-2-(dimethylamino)ethyl)-4-(3-(trifluoromethyl)phenoxy)benzenesulfonamide]: it took 14.4 µM to inhibit growth by half (GI50).

The molecule `CC(C)Oc1ccc(S(=O)(=O)NCC2(c3ccccc3)CC2(C)C)cn1` (centres unmarked) [Example 29, N-((2,2-dimethyl-1-phenylcyclopropyl)methyl)-6-isopropoxypyridine-3-sulfonamide] came in with a GI50 of 78.7 µM.

For `CC(C)Oc1ccc(S(=O)(=O)NC(c2cc(Cl)cc(Cl)c2)C2CCCCC2)cn1` (centres unmarked) [Example 30, N-(cyclohexyl(3,5-dichlorophenyl)methyl)-6-isopropoxypyridine-3-sulfonamide], the GI50 amounted to 22.8 µM.

In the case of `CN(C)CC(NC(=O)c1ccc(OC(F)(F)F)cc1)c1ccc(Cl)c(Cl)c1` (centres unmarked) [Example 31, N-(1-(3,4-dichlorophenyl)-2-(dimethylamino)ethyl)-4-(trifluoromethoxy)benzamide], the GI50 turned out to be 41.9 µM.

`CN(C)CC(NC(=O)c1ccc(OC(F)(F)F)c([N+](=O)[O-])c1)c1ccc(Cl)c(Cl)c1` (centres unmarked) [Example 32, N-(1-(3,4-dichlorophenyl)-2-(dimethylamino)ethyl)-3-nitro-4-(trifluoromethoxy)benzamide] gave a 50% growth inhibitory concentration (GI50) of 2.1 µM.

`O=C(NC1(c2ccc(Cl)cc2)CCNC1)c1ccc(OC(F)(F)F)cc1` (centres unmarked) [Example 33, N-(3-(4-chlorophenyl)pyrrolidin-3-yl)-4-(trifluoromethoxy)benzamide] returned a 50% growth inhibitory concentration (GI50) of 23.3 µM.

`CN(C)CC(c1ccc(Cl)c(Cl)c1)n1cc(-c2ccc(OC(F)(F)F)cc2)cn1` (centres unmarked) [Example 34, 2-(3,4-dichlorophenyl)-N,N-dimethyl-2-(4-(4-(trifluoromethoxy)phenyl)-1H-pyrazol-1-yl)ethan-1-amine] yielded a concentration for 50% growth inhibition (GI50) of 54.6 µM.

With `CN(C)CC(c1ccc(Cl)c(Cl)c1)n1cnc(-c2ccc(OC(F)(F)F)cc2)c1` (centres unmarked) [Example 35, 2-(3,4-dichlorophenyl)-N,N-dimethyl-2-(4-(4-(trifluoromethoxy)phenyl)-1H-imidazol-1-yl)ethan-1-amine], growth was halved (GI50) at 20.4 µM.

`FC(F)(F)Oc1ccc(-c2cn(C3(c4ccc(Cl)cc4)CCNC3)cn2)cc1` (centres unmarked) [Example 36, 1-(3-(4-chlorophenyl)pyrrolidin-3-yl)-4-(4-(trifluoromethoxy)phenyl)-1H-imidazole] came in with a concentration for 50% growth inhibition (GI50) of 25.2 µM.

The molecule `FC(F)(F)Oc1ccc(-c2cnn(C3(c4ccccc4)CCNC3)c2)cc1` (centres unmarked) [Example 37, 1-(3-phenylpyrrolidin-3-yl)-4-(4-(trifluoromethoxy)phenyl)-1H-pyrazole] showed a GI50 of 30.5 µM.

`O=S(=O)(Nc1ccc(OC(F)(F)F)cc1)C1(c2ccccc2)CCNCC1` [Example 38, 4-phenyl-N-(4-(trifluoromethoxy)phenyl)piperidine-4-sulfonamide]: halving of growth (GI50) required 23 µM.

A further assay has as its system HCC1937 cells. In words: Cell viability assay (MTS), HCC1937 cell line. The assay is classed as cell-based. Particulars: Homo sapiens, HCC1937 cell line (footnote a), 48 hours. The protocol:
HCC1937 cells are plated in a 96 well plate format at a density of 10,000 cells per well. After incubation overnight, cells are treated with a compound (e.g., compound 5) at the following concentrations: 80, 40, 20, 10, 5, 2.5, 1.25 μM. Compound concentrations are prepared in RPMI via serial dilutions from a starting stock of 80 mM. Forty-eight (48) hours after compound treatment, cell viability is assessed using the Promega CellTiter 96 aqueous one proliferation assay (Promega G3582, MTS assay) according to manufacturer's protocol.
as §1
`CC(C)Oc1ccc(S(=O)(=O)NC2(c3ccc(Cl)cn3)CCNCC2)cn1` [Example 5, N-(4-(5-chloropyridin-2-yl)piperidin-4-yl)-6-isopropoxypyridine-3-sulfonamide]: the concentration for 50% growth inhibition (GI50) came out at 51.4 µM.

With `O=S(=O)(N[C@H](c1ccc(Cl)cn1)C1CCNCC1)c1ccc(OC(F)(F)F)cc1` [Example 15, (S)-N-((5-chloropyridin-2-yl)(piperidin-4-yl)methyl)-4-(trifluoromethoxy)benzenesulfonamide], it took 48.7 µM to inhibit growth by half (GI50).

`CC(C)Oc1ccc(S(=O)(=O)N[C@@H](c2ccccc2)C2CCNCC2)cn1` [Example 18, (R)-6-isopropoxy-N-(phenyl(piperidin-4-yl)methyl)pyridine-3-sulfonamide] displayed a GI50 of 74.3 µM.
